Data from PMC4175002, “The Design and Synthesis of Potent and Selective Inhibitors of Trypanosoma brucei Glycogen Synthase Kinase 3 for the Treatment of Human African Trypanosomiasis” (Journal of Medicinal Chemistry, 2014).

How the values were obtained:
[1] = system: IKK; assay: Mammalian kinase profiling (DSTT panel); assay type: biochemical, human; conditions: 10 μM; average percentage of remaining activity
Procedure: (§1) To assess the selectivity of the aminopyrazole inhibitors, remaining activity at 10 μM concentration was measured for compounds 4f, 4m, and 4y against a panel of 80 human PKs and for compound 9g against 124 human PKs. […] Compound 4m inhibited only two PKs, namely GSK3β and CDK2, at more than 80%.
(§2) Selected compounds were screened against a panel of mammalian kinases routinely run by the Division of Signal Transduction Therapy (DSTT) at the University of Dundee in duplicate at 10 μM.[32] Enzymes included in the panel and assay conditions are reported in the literature. All biochemical assays are run below the Km^app for the ATP for each enzyme, allowing comparison of inhibition across the panel.

[2] = target: HsGSK3β (Homo sapiens, UniProt P49841); assay: Radiometric Flashplate potency assay, HsGSK3β; assay type: biochemical; conditions: ratio of IC50 values
Procedure: (§3) For compound potency determinations, a radiometric 96-well Flashplate assay (PerkinElmer) was adopted. Compounds were solubilized in DMSO at a top concentration of 3 mM and serially diluted to achieve 10-point titration of final assay concentrations from 30 μM to 0.3 nM with a final DMSO concentration of 1% (v/v). The reaction mixtures contained 1 μM biotinylated GSP2 substrate, 1 μM ATP, 3.7 KBq/well [γ-33P]-ATP and 2.5 nM TbGSK3 in the TbGSK3 kinase assay buffer. GSK3 inhibitors were screened for selectivity assessment also against HsGSK3β. For HsGSK3 assay, the reaction mixes contained 1 μM biotinylated GSP2 substrate, 2 μM ATP, 7.4 KBq/well [γ-33P]-ATP and 15 nM HsGSK3β in the TbGSK3 kinase assay buffer (25 mM Tris-HCl, pH 7.5, 10 mM MgCl2, 5 mM DTT, 0.02% CHAPS, 2 U/mL heparin). For HsCDK2/cyclin A assay, the reaction mixtures contained 1 mM CDK5 biotinylated peptide substrate (Biotin-C6-PKTPKKAKKL), 1 μM ATP, 7.4 KBq/well [γ-^33P]-ATP and 2 nM HsCDK2/cyclin A in the kinase assay buffer (50 mM Tris-HCl, pH 7.5, 10 mM MgCl2, 2 mM DTT, 100 mM NaCl, 0.2 mM EGTA, 0.02% (v/v) Brij35).
This implies that a difference of >0.3 in pIC50 can be considered statistically significant for this assay.

[3] = target: T1, PKBb (Homo sapiens, UniProt P31751); assay: Mammalian kinase profiling (DSTT panel); assay type: biochemical; conditions: average percentage of remaining activity, read-out: PKBb activity compared to the control
T1 construct: purchased Division of Signal Transduction Therapy (DSTT), University of Dundee
Procedure: as §1, §2

[4] = target: T2, Src (Homo sapiens, UniProt P12931); assay: Mammalian kinase profiling (DSTT panel); assay type: biochemical; conditions: 10 μM; average percentage of remaining activity
T2 construct: purchased Division of Signal Transduction Therapy (DSTT), University of Dundee
Procedure: as §1, §2

[5] = target: T3, PAK4 (Homo sapiens, UniProt O96013); assay: Mammalian kinase profiling (DSTT panel); assay type: biochemical; conditions: 10 μM; average percentage of remaining activity
T3 construct: purchased Division of Signal Transduction Therapy (DSTT), University of Dundee
Procedure: as §1, §2

[6] = target: T4, MARK3 (Homo sapiens, UniProt P27448); assay: Mammalian kinase profiling (DSTT panel); assay type: biochemical; conditions: 10 μM; average percentage of remaining activity
T4 construct: purchased Division of Signal Transduction Therapy (DSTT), University of Dundee
Procedure: as §1, §2

[7] = target: T5, MSK1 (Homo sapiens, UniProt O75582); assay: Mammalian kinase profiling (DSTT panel); assay type: biochemical; conditions: 10 μM; average percentage of remaining activity
T5 construct: purchased Division of Signal Transduction Therapy (DSTT), University of Dundee
Procedure: as §1, §2

[8] = target: T6, PKC zeta (Homo sapiens, UniProt Q05513); assay: Mammalian kinase profiling (DSTT panel); assay type: biochemical; conditions: 10 μM; average percentage of remaining activity
T6 construct: purchased Division of Signal Transduction Therapy (DSTT), University of Dundee
Procedure: as §1, §2

[9] = target: T7, NEK6 (Homo sapiens, UniProt Q9HC98); assay: Mammalian kinase profiling (DSTT panel); assay type: biochemical; conditions: 10 μM; average percentage of remaining activity
T7 construct: purchased Division of Signal Transduction Therapy (DSTT), University of Dundee
Procedure: as §1, §2

[10] = target: T8, BRSK2 (Homo sapiens, UniProt Q8IWQ3); assay: Mammalian kinase profiling (DSTT panel); assay type: biochemical; conditions: 10 μM; average percentage of remaining activity
T8 construct: purchased Division of Signal Transduction Therapy (DSTT), University of Dundee
Procedure: as §1, §2

[11] = target: T9, EF2K (Homo sapiens, UniProt O00418); assay: Mammalian kinase profiling (DSTT panel); assay type: biochemical; conditions: 10 μM; average percentage of remaining activity
T9 construct: purchased Division of Signal Transduction Therapy (DSTT), University of Dundee
Procedure: as §1, §2

[12] = target: T10, PHK (Homo sapiens, UniProt Q16816); assay: Mammalian kinase profiling (DSTT panel); assay type: biochemical; conditions: 10 μM; average percentage of remaining activity
T10 construct: purchased Division of Signal Transduction Therapy (DSTT), University of Dundee
Procedure: as §1, §2

[13] = target: T11, MNK2 (Homo sapiens, UniProt Q9HBH9); assay: Mammalian kinase profiling (DSTT panel); assay type: biochemical; conditions: 10 μM; average percentage of remaining activity
T11 construct: purchased Division of Signal Transduction Therapy (DSTT), University of Dundee
Procedure: as §1, §2

[14] = target: T12, RSK1 (Homo sapiens, UniProt Q15418); assay: Mammalian kinase profiling (DSTT panel); assay type: biochemical; conditions: 10 μM; average percentage of remaining activity
T12 construct: purchased Division of Signal Transduction Therapy (DSTT), University of Dundee
Procedure: as §1, §2

[15] = target: T13, P38s MAPK (Homo sapiens, UniProt O15264); assay: Mammalian kinase profiling (DSTT panel); assay type: biochemical; conditions: 10 μM; average percentage of remaining activity
T13 construct: purchased Division of Signal Transduction Therapy (DSTT), University of Dundee
Procedure: as §1, §2

[16] = target: T14, PLK1 (Homo sapiens, UniProt P53350); assay: Mammalian kinase profiling (DSTT panel); assay type: biochemical; conditions: 10 μM; average percentage of remaining activity
T14 construct: purchased Division of Signal Transduction Therapy (DSTT), University of Dundee
Procedure: as §1, §2

[17] = target: T15, VEG-FR (Homo sapiens, UniProt P17948); assay: Mammalian kinase profiling (DSTT panel); assay type: biochemical; conditions: 10 μM; average percentage of remaining activity
T15 construct: purchased Division of Signal Transduction Therapy (DSTT), University of Dundee
Procedure: as §1, §2

[18] = target: T16, CHK1 (Homo sapiens, UniProt O14757); assay: Mammalian kinase profiling (DSTT panel); assay type: biochemical; conditions: 10 μM; average percentage of remaining activity
T16 construct: purchased Division of Signal Transduction Therapy (DSTT), University of Dundee
Procedure: as §1, §2

[19] = target: T17, S6K1 (Homo sapiens, UniProt P23443); assay: Mammalian kinase profiling (DSTT panel); assay type: biochemical; conditions: 10 μM; average percentage of remaining activity
T17 construct: purchased Division of Signal Transduction Therapy (DSTT), University of Dundee
Procedure: as §1, §2

[20] = target: T18, TbGSK3 short (Trypanosoma brucei brucei, UniProt Q388M1); assay: Radiometric 96-well Flashplate potency assay, TbGSK3; assay type: biochemical
T18 sequence (Q388M1 1-352): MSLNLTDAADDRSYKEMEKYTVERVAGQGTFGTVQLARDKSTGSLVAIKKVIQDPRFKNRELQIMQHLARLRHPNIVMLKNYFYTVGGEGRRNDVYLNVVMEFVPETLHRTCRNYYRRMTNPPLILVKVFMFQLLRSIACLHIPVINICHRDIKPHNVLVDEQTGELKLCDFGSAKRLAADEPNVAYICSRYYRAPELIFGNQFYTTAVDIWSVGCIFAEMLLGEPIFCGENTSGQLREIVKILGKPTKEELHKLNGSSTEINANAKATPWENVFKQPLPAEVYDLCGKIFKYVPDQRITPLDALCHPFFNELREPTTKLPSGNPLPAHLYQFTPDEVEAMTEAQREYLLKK
Procedure: as §3
The statistical significance of the compound potency (IC50) was based on the performance of standard molecules which have been tested to a high replication. In the case of TbGSK3 short assay, the standard compound GW8510 was tested 93 times across 9 independent runs. […] The minimum significant ratio (MSR) of 0.4 was evaluated considering the following formula: [drawing 1] where SD is the standard deviation and N the number of replicate values routinely used for the assay (2 in our case).[31] This implies that a difference of >0.4 in pIC50 can be considered statistically significant for this assay.

[21] = target: T19, IKKb (Homo sapiens, UniProt O14920); assay: Mammalian kinase profiling (DSTT panel); assay type: biochemical; conditions: 10 μM; average percentage of remaining activity
T19 construct: purchased Division of Signal Transduction Therapy (DSTT), University of Dundee
Procedure: as §1, §2

[22] = target: T20, MST4 (Homo sapiens, UniProt Q9P289); assay: Mammalian kinase profiling (DSTT panel); assay type: biochemical; conditions: 10 μM; average percentage of remaining activity
T20 construct: purchased Division of Signal Transduction Therapy (DSTT), University of Dundee
Procedure: as §1, §2

[23] = target: T21, PAK6 (Homo sapiens, UniProt Q9NQU5); assay: Mammalian kinase profiling (DSTT panel); assay type: biochemical; conditions: 10 μM; average percentage of remaining activity
T21 construct: purchased Division of Signal Transduction Therapy (DSTT), University of Dundee
Procedure: as §1, §2

Sequence of HsGSK3β (P49841 whole entry): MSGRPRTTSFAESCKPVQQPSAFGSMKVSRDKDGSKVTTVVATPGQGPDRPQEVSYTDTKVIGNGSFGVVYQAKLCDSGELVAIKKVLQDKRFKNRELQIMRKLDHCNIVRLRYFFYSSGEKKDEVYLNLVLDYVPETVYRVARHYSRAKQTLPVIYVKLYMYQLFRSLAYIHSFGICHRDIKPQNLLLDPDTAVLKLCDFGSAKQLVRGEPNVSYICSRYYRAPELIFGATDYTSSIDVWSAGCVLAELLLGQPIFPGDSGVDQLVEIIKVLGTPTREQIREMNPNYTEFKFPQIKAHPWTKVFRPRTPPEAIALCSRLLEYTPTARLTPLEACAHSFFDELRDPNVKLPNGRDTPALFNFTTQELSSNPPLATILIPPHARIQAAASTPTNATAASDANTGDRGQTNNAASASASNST
T5 sequence (O75582 whole entry): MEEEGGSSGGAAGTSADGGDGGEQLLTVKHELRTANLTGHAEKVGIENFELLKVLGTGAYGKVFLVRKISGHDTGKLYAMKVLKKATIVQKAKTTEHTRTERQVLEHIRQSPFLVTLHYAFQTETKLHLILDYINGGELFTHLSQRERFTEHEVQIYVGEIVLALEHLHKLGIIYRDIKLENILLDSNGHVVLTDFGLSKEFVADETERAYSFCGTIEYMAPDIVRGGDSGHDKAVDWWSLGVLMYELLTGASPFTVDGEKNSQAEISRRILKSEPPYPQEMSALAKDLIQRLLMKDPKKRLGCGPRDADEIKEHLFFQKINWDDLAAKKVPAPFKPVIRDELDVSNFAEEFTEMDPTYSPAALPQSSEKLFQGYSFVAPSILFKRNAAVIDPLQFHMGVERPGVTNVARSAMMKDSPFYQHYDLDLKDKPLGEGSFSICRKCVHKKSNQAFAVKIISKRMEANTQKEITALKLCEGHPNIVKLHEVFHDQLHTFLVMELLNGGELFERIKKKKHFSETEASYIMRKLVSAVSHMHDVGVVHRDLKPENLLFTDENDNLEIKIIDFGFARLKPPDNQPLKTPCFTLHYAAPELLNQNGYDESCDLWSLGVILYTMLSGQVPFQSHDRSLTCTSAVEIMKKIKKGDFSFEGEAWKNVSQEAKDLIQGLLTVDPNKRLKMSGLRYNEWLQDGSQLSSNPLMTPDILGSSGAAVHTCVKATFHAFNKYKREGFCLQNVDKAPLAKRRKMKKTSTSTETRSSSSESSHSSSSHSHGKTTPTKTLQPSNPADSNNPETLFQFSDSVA
T12 sequence (Q15418 whole entry): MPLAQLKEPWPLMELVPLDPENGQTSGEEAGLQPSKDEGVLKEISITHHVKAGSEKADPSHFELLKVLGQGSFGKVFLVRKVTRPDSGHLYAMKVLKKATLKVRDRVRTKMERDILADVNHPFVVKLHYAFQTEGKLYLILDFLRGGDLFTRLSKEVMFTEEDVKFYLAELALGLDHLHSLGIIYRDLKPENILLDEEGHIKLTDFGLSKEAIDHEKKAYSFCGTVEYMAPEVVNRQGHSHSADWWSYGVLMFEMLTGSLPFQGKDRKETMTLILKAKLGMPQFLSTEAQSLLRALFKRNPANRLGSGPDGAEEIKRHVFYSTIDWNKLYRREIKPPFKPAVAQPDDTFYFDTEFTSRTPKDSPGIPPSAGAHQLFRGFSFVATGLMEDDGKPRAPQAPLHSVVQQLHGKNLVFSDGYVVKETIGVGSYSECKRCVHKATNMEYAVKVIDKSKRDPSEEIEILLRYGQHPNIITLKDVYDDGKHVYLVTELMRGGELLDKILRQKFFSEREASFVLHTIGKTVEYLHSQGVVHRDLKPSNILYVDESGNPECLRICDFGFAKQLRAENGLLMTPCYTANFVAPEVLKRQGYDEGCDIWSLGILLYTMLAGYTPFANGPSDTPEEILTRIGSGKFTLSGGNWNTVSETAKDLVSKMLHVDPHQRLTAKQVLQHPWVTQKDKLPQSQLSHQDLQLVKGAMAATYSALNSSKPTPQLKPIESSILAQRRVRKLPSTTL
T3 sequence (O96013 whole entry): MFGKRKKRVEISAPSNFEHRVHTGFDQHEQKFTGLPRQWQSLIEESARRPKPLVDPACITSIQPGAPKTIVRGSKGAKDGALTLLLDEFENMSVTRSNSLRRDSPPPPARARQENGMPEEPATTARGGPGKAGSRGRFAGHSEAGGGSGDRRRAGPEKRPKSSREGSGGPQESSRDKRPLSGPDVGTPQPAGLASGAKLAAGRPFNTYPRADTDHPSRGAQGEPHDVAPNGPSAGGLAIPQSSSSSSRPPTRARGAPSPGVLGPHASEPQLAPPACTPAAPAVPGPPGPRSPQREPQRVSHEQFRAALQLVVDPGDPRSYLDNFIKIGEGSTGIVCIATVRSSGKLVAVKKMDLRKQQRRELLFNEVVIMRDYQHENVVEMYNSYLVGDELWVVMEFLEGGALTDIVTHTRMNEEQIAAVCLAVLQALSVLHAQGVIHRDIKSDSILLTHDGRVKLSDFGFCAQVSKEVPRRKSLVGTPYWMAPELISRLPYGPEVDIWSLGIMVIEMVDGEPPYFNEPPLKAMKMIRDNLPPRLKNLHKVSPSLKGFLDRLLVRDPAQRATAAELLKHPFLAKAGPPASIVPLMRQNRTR
T17 sequence (P23443 whole entry): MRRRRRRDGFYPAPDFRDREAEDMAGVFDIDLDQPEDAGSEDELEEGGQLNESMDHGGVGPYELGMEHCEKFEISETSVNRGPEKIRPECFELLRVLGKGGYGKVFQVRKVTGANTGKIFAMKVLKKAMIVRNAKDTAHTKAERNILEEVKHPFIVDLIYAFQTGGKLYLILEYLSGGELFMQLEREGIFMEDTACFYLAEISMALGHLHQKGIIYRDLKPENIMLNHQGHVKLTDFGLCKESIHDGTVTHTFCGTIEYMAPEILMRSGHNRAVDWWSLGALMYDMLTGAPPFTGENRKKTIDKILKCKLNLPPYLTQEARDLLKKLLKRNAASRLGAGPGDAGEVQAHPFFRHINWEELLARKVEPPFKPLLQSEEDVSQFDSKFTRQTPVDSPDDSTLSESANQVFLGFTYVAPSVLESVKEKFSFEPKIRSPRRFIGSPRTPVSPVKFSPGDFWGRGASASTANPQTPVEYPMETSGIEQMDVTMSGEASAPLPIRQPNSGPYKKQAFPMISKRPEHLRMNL
T1 sequence (P31751 whole entry): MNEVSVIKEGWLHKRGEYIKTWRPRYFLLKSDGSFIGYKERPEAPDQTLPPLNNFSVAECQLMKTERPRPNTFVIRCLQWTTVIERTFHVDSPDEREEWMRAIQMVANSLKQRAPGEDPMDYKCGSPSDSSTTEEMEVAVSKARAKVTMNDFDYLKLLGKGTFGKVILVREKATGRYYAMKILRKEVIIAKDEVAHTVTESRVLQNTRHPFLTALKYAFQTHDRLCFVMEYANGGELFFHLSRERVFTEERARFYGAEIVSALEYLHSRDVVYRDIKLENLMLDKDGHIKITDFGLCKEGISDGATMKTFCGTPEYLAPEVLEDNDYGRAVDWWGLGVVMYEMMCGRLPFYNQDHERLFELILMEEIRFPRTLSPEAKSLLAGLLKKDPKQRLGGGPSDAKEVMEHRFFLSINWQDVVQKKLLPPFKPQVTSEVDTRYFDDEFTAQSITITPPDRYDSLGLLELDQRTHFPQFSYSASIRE
T15 sequence (P17948 27-1338): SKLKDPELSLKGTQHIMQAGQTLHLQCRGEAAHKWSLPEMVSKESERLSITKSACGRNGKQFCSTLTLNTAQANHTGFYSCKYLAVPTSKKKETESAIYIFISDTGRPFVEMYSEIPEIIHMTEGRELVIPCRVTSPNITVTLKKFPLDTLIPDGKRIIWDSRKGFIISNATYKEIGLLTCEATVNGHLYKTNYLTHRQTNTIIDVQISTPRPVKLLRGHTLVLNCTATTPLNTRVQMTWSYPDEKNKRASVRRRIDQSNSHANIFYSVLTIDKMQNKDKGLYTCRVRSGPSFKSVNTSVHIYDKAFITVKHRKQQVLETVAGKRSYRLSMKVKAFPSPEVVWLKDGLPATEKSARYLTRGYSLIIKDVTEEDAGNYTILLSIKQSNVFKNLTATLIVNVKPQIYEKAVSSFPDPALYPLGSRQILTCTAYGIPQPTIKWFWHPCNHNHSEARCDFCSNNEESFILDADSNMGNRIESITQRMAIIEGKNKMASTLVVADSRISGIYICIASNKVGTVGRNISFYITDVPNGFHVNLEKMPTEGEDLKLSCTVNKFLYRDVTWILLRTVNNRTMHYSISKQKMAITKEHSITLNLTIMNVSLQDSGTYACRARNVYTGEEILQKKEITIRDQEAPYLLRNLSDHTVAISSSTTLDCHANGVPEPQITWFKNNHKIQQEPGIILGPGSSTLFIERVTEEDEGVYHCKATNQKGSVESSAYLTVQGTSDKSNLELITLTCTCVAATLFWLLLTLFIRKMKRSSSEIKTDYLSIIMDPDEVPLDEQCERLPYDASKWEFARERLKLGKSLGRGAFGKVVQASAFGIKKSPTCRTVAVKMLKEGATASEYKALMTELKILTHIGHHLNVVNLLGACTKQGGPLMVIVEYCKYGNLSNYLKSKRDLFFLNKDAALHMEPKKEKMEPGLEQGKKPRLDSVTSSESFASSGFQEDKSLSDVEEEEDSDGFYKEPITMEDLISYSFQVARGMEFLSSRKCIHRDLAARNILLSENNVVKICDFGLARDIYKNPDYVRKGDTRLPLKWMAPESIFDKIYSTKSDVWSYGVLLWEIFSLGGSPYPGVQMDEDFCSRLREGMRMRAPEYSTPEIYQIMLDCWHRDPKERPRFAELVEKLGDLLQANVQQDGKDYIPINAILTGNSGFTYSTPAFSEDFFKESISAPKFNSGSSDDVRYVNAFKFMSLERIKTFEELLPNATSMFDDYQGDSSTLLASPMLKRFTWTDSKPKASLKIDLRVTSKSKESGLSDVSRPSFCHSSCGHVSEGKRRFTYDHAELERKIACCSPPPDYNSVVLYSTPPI

| SMILES | IKK activity compared to the control [1] [%] | ratio HsGSK3β/TbGSK3 [2] | remaining activity at 10 µM [3] [%] | Src activity compared to the control [4] [%] | PAK4 activity compared to the control [5] [%] | MARK3 activity compared to the control [6] [%] | MSK1 activity compared to the control [7] [%] | PKC zeta activity compared to the control [8] [%] | NEK6 activity compared to the control [9] [%] | BRSK2 activity compared to the control [10] [%] | EF2K activity compared to the control [11] [%] | PHK activity compared to the control [12] [%] | MNK2 activity compared to the control [13] [%] | RSK1 activity compared to the control [14] [%] | P38s MAPK activity compared to the control [15] [%] | PLK1 activity compared to the control [16] [%] | VEG-FR activity compared to the control [17] [%] | CHK1 activity compared to the control [18] [%] | S6K1 activity compared to the control [19] [%] | IKKb activity compared to the control [21] [%] | also measured |
| --- | --- | --- | --- | --- | --- | --- | --- | --- | --- | --- | --- | --- | --- | --- | --- | --- | --- | --- | --- | --- | --- |
| CO[C@H]1CC[C@H](NC(=O)c2n[nH]cc2NC(=O)c2ccccc2)CC1 [Compound 4f, 4-Benzamido-N-(4-methoxycyclohexyl)-1H-pyrazole-3-carboxamide] | 68 | >0.21 | 45 | 98 | 68 | 84 | 80 | 57 | 100 | 55 | 99 | 89 | 100 | 74 | 57 | 100 | 52 | 100 | 100 |  | improvement of TbGSK3 inhibition potency ([20]; relative to saturated six-membered rings (4a, 4b) and benzyl groups (4c, 4d, 4e), on average): ~20 fold |
| COc1cccc(OC)c1C(=O)Nc1c[nH]nc1C(=O)NC1CCC(OC)CC1 (stereo not drawn) [Compound 4m, 4-(2,6-Dimethoxybenzamido)-N-(4-methoxycyclohexyl)-1H-pyrazole-3-carboxamide] | 90 | <2.5 | 98 |  | 74 |  | 86 |  |  |  |  |  |  | 70 |  |  | 90 |  | 100 | 100 | MST4 activity compared to the control [22]: 49%; PAK6 activity compared to the control [23]: 90%; TbGSK3 potency relative to 4f ([20]; more potent than the unsubstituted phenyl compound 4f): approximately 10 fold |
| CO[C@H]1CC[C@H](NC(=O)c2n[nH]cc2NC(=O)c2ccc(-c3ccccc3)o2)CC1 [Compound 4y, N-(4-Methoxycyclohexyl)-4-(5-phenylfuran-2-carboxamido)-1H-pyrazole-3-carboxamide] | 71 | <0.72 | 84 | 85 | 27 | 83 | 66 | 60 | 70 | 60 | 92 | 45 | 77 | 54 | 38 | 99 | 29 | 94 | 58 | 36 | MST4 activity compared to the control [22]: 30%; PAK6 activity compared to the control [23]: 71% |
